pKd: −log10 of the molar value. Activity calls are given as the source filed them. The calls are words filed in the database; no cut-off is given here.
Tests used:
Rattus norvegicus [1] = experiment: Anti-inflammatory activity in Rattus norvegicus Wistar (rat) assessed as inhibition of carrageenan-induced paw edema at 10 mg/kg administered for 1 hr followed by carrageenan challenge measured at 3 hr relative to control; assay type: functional
Rattus norvegicus [2] = experiment: Gastrointestinal toxicity in Rattus norvegicus Wistar (rat) stomach assessed as appearance of redness at 10 mg/kg, po relative to vehicle-treated control; assay type: organism-based; design: dose 10 mg/kg, route oral; settings: in vivo
Rattus norvegicus [3] = experiment: Ulcerogenic activity in Rattus norvegicus Wistar (rat) stomach at 10 mg/kg, po relative to vehicle-treated control; assay type: toxicity, organism-based; design: dose 10 mg/kg, route oral; settings: in vivo
[4] = target: T1, Prostaglandin G/H synthase 2 (Homo sapiens, UniProt P35354); experiment: Binding affinity to COX2 (unknown origin)
T1 sequence (P35354 whole entry): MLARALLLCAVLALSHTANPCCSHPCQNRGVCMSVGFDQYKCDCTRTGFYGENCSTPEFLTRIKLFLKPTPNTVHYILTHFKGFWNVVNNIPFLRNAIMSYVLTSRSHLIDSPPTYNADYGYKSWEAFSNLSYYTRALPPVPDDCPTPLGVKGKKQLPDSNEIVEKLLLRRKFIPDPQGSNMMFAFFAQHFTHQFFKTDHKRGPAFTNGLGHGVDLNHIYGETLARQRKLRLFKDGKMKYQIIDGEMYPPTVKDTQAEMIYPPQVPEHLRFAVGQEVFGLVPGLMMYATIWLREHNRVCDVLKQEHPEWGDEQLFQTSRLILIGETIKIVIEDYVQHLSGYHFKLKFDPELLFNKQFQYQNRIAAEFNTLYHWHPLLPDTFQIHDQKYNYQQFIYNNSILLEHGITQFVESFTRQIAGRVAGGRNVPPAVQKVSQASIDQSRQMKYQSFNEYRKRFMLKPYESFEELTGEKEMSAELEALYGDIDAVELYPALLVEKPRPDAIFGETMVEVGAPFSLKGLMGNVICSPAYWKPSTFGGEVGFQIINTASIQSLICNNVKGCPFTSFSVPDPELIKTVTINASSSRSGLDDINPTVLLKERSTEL

Rattus norvegicus [5] = experiment: Gastrointestinal toxicity in Rattus norvegicus Wistar (rat) duodenum assessed as appearance of redness at 10 mg/kg, po relative to vehicle-treated control; assay type: organism-based; design: dose 10 mg/kg, route oral; settings: in vivo
Rattus norvegicus [6] = species on record: Rattus norvegicus; experiment: Toxicity in Rattus norvegicus Wistar (rat); assay type: organism-based; settings: in vivo
Rattus norvegicus [7] = experiment: Anti-inflammatory activity in Rattus norvegicus Wistar (rat) assessed as cotton pellet-induced final granuloma weight at 10 mg/kg, po administered for 7 days measured on day 8 (reference value: 110.3 +/- 8.7 mg); assay type: functional
[8] = target: T2, Prostaglandin G/H synthase 1 (Homo sapiens, UniProt P23219); experiment: Binding affinity to COX1 (unknown origin)
Rattus norvegicus [9] = experiment: Anti-inflammatory activity in Rattus norvegicus Wistar (rat) assessed as inhibition of carrageenan-induced paw edema at 10 mg/kg administered for 1 hr followed by carrageenan challenge measured at 2 hr relative to control; assay type: functional
[10] = target: T3, Prostaglandin G/H synthase 2 (Homo sapiens) (UniProt P35354); experiment: Inhibition of COX2 (unknown origin) at 10 uM
T3 sequence (whole entry): T1 sequence (P35354 whole entry)

Rattus norvegicus [11] = experiment: Anti-inflammatory activity in Rattus norvegicus Wistar (rat) assessed as decrease in cotton pellet-induced wet granuloma weight at 10 mg/kg, po administered for 7 days measured on day 8; assay type: functional, organism-based; design: dose 10 mg/kg
Rattus norvegicus [12] = experiment: Anti-inflammatory activity in Rattus norvegicus Wistar (rat) assessed as decrease in cotton pellet-induced dry granuloma weight at 10 mg/kg, po administered for 7 days measured on day 8; assay type: functional, organism-based; design: dose 10 mg/kg
Rattus norvegicus [13] = experiment: Anti-inflammatory activity in Rattus norvegicus Wistar (rat) assessed as inhibition of carrageenan-induced paw edema at 10 mg/kg administered for 1 hr followed by carrageenan challenge measured at 4 hr relative to control; assay type: functional
[14] = target: T2, Prostaglandin G/H synthase 1; experiment: Inhibition of COX1 (unknown origin)
Rattus norvegicus [15] = experiment: Anti-inflammatory activity in Rattus norvegicus Wistar (rat) assessed as inhibition of carrageenan-induced paw edema at 10 mg/kg administered for 1 hr followed by carrageenan challenge measured at 1 hr relative to control; assay type: functional
[16] = target: T2, Prostaglandin G/H synthase 1; experiment: Inhibition of COX1 (unknown origin) at 1 uM
Rattus norvegicus [17] = experiment: Anti-inflammatory activity in Rattus norvegicus Wistar (rat) assessed as decrease in cotton pellet-induced final granuloma weight at 10 mg/kg, po administered for 7 days measured on day 8; assay type: functional, organism-based; design: dose 10 mg/kg
Rattus norvegicus [18] = experiment: Anti-inflammatory activity in Rattus norvegicus Wistar (rat) assessed as inhibition of carrageenan-induced paw edema administered for 1 hr followed by carrageenan challenge measured at 1 hr relative to control; assay type: functional
Rattus norvegicus [19] = experiment: Anti-inflammatory activity in Rattus norvegicus Wistar (rat) assessed as inhibition of carrageenan-induced paw edema administered for 1 hr followed by carrageenan challenge measured at 3 hr relative to control; assay type: functional
Rattus norvegicus [20] = experiment: Gastrointestinal toxicity in Rattus norvegicus Wistar (rat) stomach assessed as appearance of redness at 5 mg/kg, po relative to vehicle-treated control; assay type: organism-based; design: dose 5 mg/kg, route oral; settings: in vivo
Rattus norvegicus [21] = experiment: Toxicity in Rattus norvegicus Wistar (rat) assessed as mortality at 5 mg/kg, po administered for 7 days measured on day 8; assay type: organism-based; design: dose 5 mg/kg, route oral; settings: in vivo, 168 h
Rattus norvegicus [22] = experiment: Gastrointestinal toxicity in Rattus norvegicus Wistar (rat) duodenum assessed as appearance of redness at 5 mg/kg, po relative to vehicle-treated control; assay type: organism-based; design: dose 5 mg/kg, route oral; settings: in vivo
Rattus norvegicus [23] = experiment: Anti-inflammatory activity in Rattus norvegicus Wistar (rat) assessed as inhibition of carrageenan-induced paw edema administered for 1 hr followed by carrageenan challenge measured at 2 hr relative to control; assay type: functional
Rattus norvegicus [24] = experiment: Anti-inflammatory activity in Rattus norvegicus Wistar (rat) assessed as cotton pellet-induced final granuloma weight at 5 mg/kg, po administered for 7 days measured on day 8 (reference value: 110.3 +/- 8.7 mg); assay type: functional
Rattus norvegicus [25] = experiment: Ulcerogenic activity in Rattus norvegicus Wistar (rat) stomach at 5 mg/kg, po relative to vehicle-treated control; assay type: toxicity, organism-based; design: dose 5 mg/kg, route oral; settings: in vivo
Rattus norvegicus [26] = experiment: Anti-inflammatory activity in Rattus norvegicus Wistar (rat) assessed as inhibition of carrageenan-induced paw edema administered for 1 hr followed by carrageenan challenge measured at 4 hr relative to control; assay type: functional

T2 sequence (P23219 whole entry): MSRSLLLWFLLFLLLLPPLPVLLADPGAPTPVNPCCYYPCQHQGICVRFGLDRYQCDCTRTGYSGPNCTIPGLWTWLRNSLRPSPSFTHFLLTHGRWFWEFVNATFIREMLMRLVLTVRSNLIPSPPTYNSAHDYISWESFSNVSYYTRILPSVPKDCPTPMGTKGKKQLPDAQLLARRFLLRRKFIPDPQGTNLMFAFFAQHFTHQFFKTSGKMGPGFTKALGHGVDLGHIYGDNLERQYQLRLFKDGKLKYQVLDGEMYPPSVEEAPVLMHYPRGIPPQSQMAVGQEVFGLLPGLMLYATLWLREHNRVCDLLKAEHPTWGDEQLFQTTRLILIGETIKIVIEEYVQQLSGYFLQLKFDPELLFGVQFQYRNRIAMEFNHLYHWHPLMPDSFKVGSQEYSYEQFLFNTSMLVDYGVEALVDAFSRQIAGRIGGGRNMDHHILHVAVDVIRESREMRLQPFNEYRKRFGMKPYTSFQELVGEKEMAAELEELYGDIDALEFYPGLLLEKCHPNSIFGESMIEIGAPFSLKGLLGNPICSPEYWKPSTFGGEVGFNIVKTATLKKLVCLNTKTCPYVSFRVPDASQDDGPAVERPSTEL

SMILES | inhibition in vivo at 10 mg/kg (Rattus norvegicus [1]) | pKd [4] | LD (Rattus norvegicus [6]) | pKd [8] | inhibition in vivo at 10 mg/kg (Rattus norvegicus [9]) | Activity (Rattus norvegicus [11]) | Activity (Rattus norvegicus [12]) | inhibition in vivo at 10 mg/kg (Rattus norvegicus [13]) | inhibition [14] | inhibition in vivo at 10 mg/kg (Rattus norvegicus [15]) | Activity (Rattus norvegicus [17]) | other results
Nc1c(C(=O)O)nc2ccccn12 | 80.3% | 6.35 | 1000 mg/kg | 6.58 | 76.7% | Active | Active | 73.2% | inactive | 61.3% |  | Activity (Rattus norvegicus [2]): Non-toxic; Activity (Rattus norvegicus [3]): Non-toxic; Activity (Rattus norvegicus [5]): Non-toxic; Activity (Rattus norvegicus [7]): 70.5 mg; inhibition [10]: 20%
CC(C(=O)O)c1ccc(-c2cn3ccccc3n2)cc1 (stereo unspecified) [MIROPROFEN] |  | 7.32 |  | 6.73 |  |  |  |  |  |  |  | 
O=C(O)c1cn2ccccc2n1 | 69.4% | 6.19 | 1000 mg/kg | 5.81 | 62.5% | Active | Active | 74% |  | 75.6% | Active | inhibition [16]: 15.6%
CCOC(=O)c1nc2ccccn2c1[N+](=O)[O-] | 25.4% | 6.64 | 1000 mg/kg | 5.98 | 43.1% |  |  | 14.2% | inactive | 54.2% |  | 
O=C(O)c1nc2ccccn2c1[N+](=O)[O-] | 24.4% | 7.30 | 1000 mg/kg | 7.81 | 43.5% | Active | Active | 14.2% | inactive | 57.2% | Active | 
COc1ccc2c(c1)c(CC(=O)O)c(C)n2C(=O)c1ccc(Cl)cc1 [INDOMETHACIN] |  |  |  |  |  |  |  |  |  |  |  | inhibition (INH) (Rattus norvegicus [18]): 62.6%; inhibition (INH) (Rattus norvegicus [19]): 77.3%; Activity (Rattus norvegicus [20]): Toxic; Activity (Rattus norvegicus [21]): Toxic; Activity (Rattus norvegicus [22]): Toxic; inhibition (INH) (Rattus norvegicus [23]): 65.5%; Activity (Rattus norvegicus [24]): 42.3 mg; Activity (Rattus norvegicus [25]): Toxic; inhibition (INH) (Rattus norvegicus [26]): 74.6%
